Data as given in PubChem BioAssay (NCI).
Several values for one entry are separate records, joined by “and”; a condition that tells them apart may be missing. Equal values may be shown once.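 The compound was tested at five concentrations on cells cultured in 96-well plates, with a 48-hour exposure period. GI50 is the concentration that inhibits growth by half. TGI: total growth inhibition.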

What was measured:
Experiment in all cases: NCI anticancer screen, dose series, 48 h
[1] = tested on: T-47D breast
[2] = tested on: RXF-631 renal
[3] = tested on: MDA-N
[4] = tested on: DMS 273 small cell lung
[5] = tested on: XF 498 CNS
[6] = tested on: M19-MEL melanoma
[7] = tested on: LXFL 529 NSCLC
[8] = tested on: SNB-78 CNS
[9] = tested on: KM20L2 colon

In the case of `Oc1c(Cl)cc(Cl)cc1Sc1cc(Cl)cc(Cl)c1O`, the GI50 [1] is reported as 3.23 µM and 2.45 µM and the TGI [1] is reported as 18 µM and 7.78 µM.
`COc1cc2c3c(ncc2c(OC)c1OC)-c1cc2c(cc1C3)OCO2` showed a GI50 [1] of 26.2 µM and a TGI [1] of 89.8 µM.
In the case of `CCOC(=O)Nc1nc2cc(OCC)ccc2s1`, the GI50 [1] is reported as 35 µM and the TGI [1] is reported as > 100 µM.
For `C/C(=N\NC(=S)N1CCN(c2ccccn2)CC1)c1nccs1`, the TGI [2] was 24.2 µM, the GI50 [1] was 0.855 µM and the TGI [1] was 22.1 µM. The TGI [3] was 16.6 µM, the TGI [4] was 11.4 µM and the TGI [5] was 32.1 µM. For the same compound, the TGI [6] was 2.34 µM, the TGI [7] was 22 µM and the TGI [8] was 71.4 µM.
For `COC(=O)C(=O)C(C(=O)C(N)=O)c1nc2ccc(C(=O)c3ccccc3)cc2[nH]c1=O` (configuration not stated), the TGI [1] was > 100 µM and the TGI [3] was > 100 µM.
`Cc1c(Cl)cccc1NC(=O)/C(Cl)=C(\Cl)C(=O)O` was tested, and the TGI [2] was 56.7 µM, the TGI [4] was 38.4 µM and the TGI [6] was 30.7 µM. For the same compound, the TGI [7] was 46.5 µM, the TGI [9] was 40.9 µM and the TGI [8] was 44.7 µM.
`CCCCCCNC(=O)Oc1ccc(/C(=C(/C)Cc2ccc(OC)cc2)c2ccc(OCCN(C)C)cc2)cc1` was tested, and the GI50 [1] was 1.41 µM and the TGI [1] was 7.12 µM.
Compound `COc1ccc(NC(=O)n2nc(/C=C\c3ccc(O)c(OC)c3)cc2/C=C\c2ccc(O)c(OC)c2)cc1` has a GI50 [1] of 3.68 µM and a TGI [1] of 25.8 µM.
For `C[C@]12CC[C@@H](OC(=O)N(CCCl)N=O)C[C@@H]1CC[C@@H]1[C@@H]2CC[C@]2(C)C(=O)CC[C@@H]12`, the GI50 [1] was 2.82 µM and the TGI [1] was 55.9 µM.
`S=P(N1CCCC1)(N1CC1)N1CC1` was tested, and the TGI [4] was > 100 µM, the TGI [5] was > 100 µM and the TGI [6] was > 100 µM. For the same compound, the TGI [9] was > 100 µM and the TGI [8] was > 100 µM.
With `NC(=O)c1csc(C2CCC(CO)O2)n1` (configuration not stated) the TGI [4] was > 100 µM, the TGI [6] was > 100 µM and the TGI [7] was > 100 µM. For the same compound, the TGI [9] was > 100 µM and the TGI [8] was > 100 µM.
Work on `N=c1ccc2nc3c(cc(N)c4ccccc43)oc-2c1` yielded a GI50 [1] of 1.09 µM and a TGI [1] of 2.79 µM.
In the case of `Cc1ccc2sc3ccc(N)cc3c(=O)c2c1`, the TGI [1] is reported as 78.5 µM and the TGI [3] is reported as > 100 µM.
In the case of `COc1cc(/C=C2\CN(C(=O)CCN3CCC(=NO)CC3)C/C(=C\c3cc(OC)c(OC)c(OC)c3)C2=O)cc(OC)c1OC`, the GI50 [1] is reported as 0.803 µM and the TGI [1] is reported as 10.6 µM.
`CC(=O)c1cccc(-c2cccc(-c3ccn(CCN4CCOCC4)n3)c2)c1` was tested, and the GI50 [1] was 17.4 µM and the TGI [1] was > 20 µM.
In the case of `CS(=O)(=O)NNS(=O)(=O)c1ccc(Cl)cc1`, the TGI [2] is reported as > 100 µM, the TGI [4] is reported as > 100 µM and the TGI [5] is reported as > 100 µM. The TGI [6] was > 100 µM, the TGI [7] was > 100 µM and the TGI [9] was > 100 µM.
With `COC(=O)c1ccc(C(=O)OC)c2nc3cc(C)ccc3nc12` the TGI [2] was > 100 µM, the TGI [4] was > 100 µM and the TGI [5] was > 100 µM. The TGI [7] was > 100 µM, the TGI [9] was > 100 µM and the TGI [8] was > 100 µM.
`CCCCCCNC(=O)n1cc(F)c(=O)[nH]c1=O` gave a GI50 [1] of 11.7 µM and a TGI [1] of 47.5 µM.
Work on `CCN(CC)CCOc1c(OC)c(Br)cc2c(C)c(C(=O)OC)oc12` yielded a GI50 [1] of 0.188 µM and a TGI [1] of 0.488 µM.
In the case of `Cc1c(C(=O)CC(=O)C(=O)Nc2cc(Cl)ccc2Cl)[n+](=O)c2ccccc2n1[O-]`, the TGI [4] is reported as 69.4 µM, the TGI [5] is reported as > 100 µM and the TGI [6] is reported as 59.1 µM. For the same compound, the TGI [7] was > 100 µM, the TGI [9] was > 100 µM and the TGI [8] was > 100 µM.
In the case of `CNCCNc1nc2ccccc2c2c(=O)c3cc(OC)ccc3sc12`, the GI50 [1] is reported as 1.71 µM and the TGI [1] is reported as 3.66 µM.
`COC(=O)c1cc(-c2ccc(OC)cc2)[nH]c1N/N=C/c1c(Cl)cccc1Cl` was tested, and the GI50 [1] was 0.505 µM and the TGI [1] was > 31.8 µM.
`Clc1ccc(-c2c(C3=NCCN3)nnn2-c2ccccc2)cc1` was tested, and the TGI [4] was > 100 µM, the TGI [5] was > 100 µM and the TGI [6] was > 100 µM. The TGI [7] was > 100 µM, the TGI [9] was > 100 µM and the TGI [8] was > 100 µM.
With `O=C1CCN2CCC(=O)c3c2c(cc2ccccc32)N1` the TGI [4] was > 100 µM, the TGI [5] was 93.5 µM and the TGI [6] was > 100 µM. For the same compound, the TGI [7] was > 100 µM, the TGI [9] was > 100 µM and the TGI [8] was > 100 µM.
`COc1ccc2ccccc2c1CN1CCOCCOCCN(Cc2c(OC)ccc3ccccc23)CCOCCOCC1` was tested, and the TGI [4] was 70.5 µM, the TGI [5] was > 63.2 µM and the TGI [6] was > 100 µM. The TGI [7] was > 100 µM, the TGI [9] was > 100 µM and the TGI [8] was > 100 µM.
With `COc1nc(C)cc2c(=O)n(-c3ccccc3)n(CC(O)CN3CCN(c4ccc(Cl)cc4)CC3)c(=O)c12` (configuration not stated) the GI50 [1] was > 50 µM and the TGI [1] was > 50 µM.
In the case of `CCCCCCCCCCCCCC(=O)NCC(OCC)OCC`, the TGI [4] is reported as > 100 µM, the TGI [5] is reported as > 100 µM and the TGI [6] is reported as > 100 µM. For the same compound, the TGI [7] was > 100 µM, the TGI [9] was > 100 µM and the TGI [8] was > 100 µM.
Compound `C/C(=C(/c1ccc(O)cc1)c1ccc(Cl)cc1)c1ccccc1` has a GI50 [1] of 0.762 µM and a TGI [1] of 3.22 µM.
With `CCCCN(CC)c1ncnc2ccc(Br)cc12` the GI50 [1] was 28.9 µM and the TGI [1] was > 100 µM.
In the case of `CC(/C=C/NNC1=NC(c2ccccc2)C(c2ccccc2)=NN1)Sc1ccccc1N` (configuration not stated), the TGI [2] is reported as 38.7 µM, the TGI [4] is reported as 22.9 µM and the TGI [6] is reported as 28.9 µM. The TGI [7] was 15.5 µM, the TGI [9] was 23.2 µM and the TGI [8] was 67.9 µM.
Work on `Oc1c(CN2CCCC2)cc(CSCc2ccccc2)c2cccnc12` yielded a GI50 [1] of 1.15 µM and a TGI [1] of 8.26 µM.
For `CN1c2ccccc2S(=O)(=O)n2c(CCc3ccccc3)nnc21`, the TGI [1] was > 100 µM and the TGI [3] was > 100 µM.
In the case of `Cc1cccc(N=C2NC(=O)C(CC(=O)Nc3ccc(C)cc3C)S2)c1` (configuration not stated), the TGI [4] is reported as > 100 µM, the TGI [5] is reported as > 100 µM and the TGI [6] is reported as > 100 µM. For the same compound, the TGI [7] was > 100 µM, the TGI [9] was > 100 µM and the TGI [8] was > 100 µM.
For `CCOC(=O)C1=C(Nc2ccc(Cl)c(Cl)c2)OC/C1=N\NC(=O)Cc1ccccc1`, the TGI [4] was > 100 µM, the TGI [5] was > 100 µM and the TGI [6] was > 100 µM. The TGI [7] was > 100 µM, the TGI [9] was > 100 µM and the TGI [8] was > 100 µM.
`CC1(O)CCC2(C)C(=O)C1(C)CCC21OCCO1` (configuration not stated) was tested, and the TGI [4] was > 100 µM, the TGI [5] was > 100 µM and the TGI [6] was > 100 µM. For the same compound, the TGI [7] was > 100 µM.
For `CC(C(=O)O)c1ccc(-c2ccccc2)c(F)c1` (configuration not stated), the TGI [1] was > 100 µM and the TGI [3] was > 100 µM.
For `N#Cc1c(C[n+]2ccccc2)c2ccccc2oc1=O`, the TGI [4] was > 100 µM, the TGI [5] was > 100 µM and the TGI [6] was > 100 µM. For the same compound, the TGI [7] was > 100 µM, the TGI [9] was > 100 µM and the TGI [8] was > 100 µM.
